SMILES strings stand for the structures.

This experiment has as its target T1, human FSH receptor (Homo sapiens, UniProt P23945).
T1 construct: expressed in transfected cells; host or cells: CHO cells (hFSHR clone 16)
T1 sequence (P23945 18-695): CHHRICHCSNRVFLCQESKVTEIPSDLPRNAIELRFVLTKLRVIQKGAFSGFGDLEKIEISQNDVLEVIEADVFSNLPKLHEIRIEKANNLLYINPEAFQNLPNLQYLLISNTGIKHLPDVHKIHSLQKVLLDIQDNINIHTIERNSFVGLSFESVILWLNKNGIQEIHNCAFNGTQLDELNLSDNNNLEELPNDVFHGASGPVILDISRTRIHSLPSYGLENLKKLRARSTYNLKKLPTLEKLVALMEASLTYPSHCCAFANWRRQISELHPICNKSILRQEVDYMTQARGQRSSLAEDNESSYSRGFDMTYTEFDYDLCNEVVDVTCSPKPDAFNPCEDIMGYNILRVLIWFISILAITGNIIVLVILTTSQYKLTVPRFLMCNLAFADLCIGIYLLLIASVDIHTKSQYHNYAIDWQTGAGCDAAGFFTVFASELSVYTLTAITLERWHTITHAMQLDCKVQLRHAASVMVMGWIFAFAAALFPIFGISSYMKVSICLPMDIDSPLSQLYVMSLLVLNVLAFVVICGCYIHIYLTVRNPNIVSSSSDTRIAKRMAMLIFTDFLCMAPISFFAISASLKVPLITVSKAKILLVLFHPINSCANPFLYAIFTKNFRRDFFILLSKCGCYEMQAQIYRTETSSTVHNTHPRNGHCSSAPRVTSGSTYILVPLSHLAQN
Briefly: HTRF assay for measuring cAMP in cells, FSH-antagonistic effect (in the presence of hFSH). Format: cell-based. Conditions: hFSHR clone 16 cells (CHO cells stably transfected with the human FSH receptor), in the presence of 1e-9 mol/l hFSH, 37° C. for 2 h.
From the text: […]
On the technique in general: Time-resolved FRET reads energy transfer from a long-lived donor to a nearby acceptor.
A word on the IC50: it is the concentration that gives 50% inhibition. For `COc1ccc(-c2cc(F)c(F)c(F)c2)c(C(=O)N[C@@H](CO)Cc2c[nH]c3ccccc23)c1` [Example 88, 3′,4′, 5′-Trifluoro-N-[(R)-1-(hydroxymethyl)-2-(1H-indol-3-yl)ethyl]-4-methoxy[1,1′-biphenyl]-2-carboxamide], the IC50 was 10 µM.

For `COc1ccc(-c2cc(CCCO)cc(C(=O)N[C@@H](CO)Cc3c[nH]c4ccccc34)c2)cc1OC` [Example 396, 5-(3-Hydroxypropyl)-3′,4′-dimethoxybiphenyl-3-carboxylic acid [(R)-1-hydroxymethyl-2-(1H-indol-3-yl)ethyl]amide], the IC50 is 3.5 µM.

As to `CCOc1ccc(-c2ccc(C)cc2)cc1C(=O)N[C@@H](CO)Cc1c[nH]c2ccccc12` [Example 162, 4-Ethoxy-4′-methylbiphenyl-3-carboxylic acid [(R)-1-hydroxy-methyl-2-(1H-indol-3-yl)ethyl]amide], the IC50 came to 1.5 µM.

Take `COc1ccc(-c2ccc(OC)c(C(=O)N[C@@H](CO)Cc3c[nH]c4ccccc34)c2)cc1F` [Example 307, 3′-Fluoro-4,4′-dimethoxybiphenyl-3-carboxylic acid [(R)-2-hydroxy-1-(1H-indol-3-ylmethyl)ethyl]amide]: the IC50 is 0.45 µM.

As to `Cc1nc(C)c(-c2cc(C(=O)N[C@@H](CO)Cc3c[nH]c4ccccc34)c3cc(Br)ccc3n2)s1` [Example 108, 6-Bromo-2-(2,4-dimethyl-thiazol-5-yl)quinoline-4-carboxylic acid [(R)-2-hydroxy-1-(1H-indol-3-ylmethyl)ethyl]amide], the IC50 amounted to 3 µM.

On to `COc1ccc(OC)c(-c2cccc(C(=O)N[C@@H](CO)Cc3c[nH]c4ccccc34)c2)c1` [Example 87, N-[(R)-1-(Hydroxymethyl)-2-(1H-indol-3-yl)ethyl]-2′,5′-dimethoxy-[1,1′-biphenyl]-3-carboxamide], for which the IC50 was found to be 10 µM.

On to `CCn1cc(C[C@H](CO)NC(=O)c2cc(-c3cc(F)c(OC)c(F)c3)nc3ccc(OC)cc23)c2ccccc21` [Example 337], for which the IC50 worked out at 3.5 µM.

As for `COc1ccc2nc(CCc3ccc(OC)c(OC)c3)cc(C(=O)N[C@@H](CO)Cc3c[nH]c4ccccc34)c2c1` [Example 96, 2-[2-(3,4-dimethoxyphenyl)ethyl]-N-[(R)-1-(hydroxymethyl)-2-(1H-indol-3-yl)ethyl]-6-methoxyquinoline-4-carboxamide], the IC50 was 7 µM.

Take `COc1ccc2nc(-c3ccc(OC)c(OC)c3OC)cc(C(=O)N[C@@H](CO)Cc3c[nH]c4ccccc34)c2c1` [Example 16, N-[(R)-1-(Hydroxymethyl)-2-(1H-indol-3-yl)ethyl]-6-methoxy-2-(2,3,4-trimethoxyphenyl)quinoline-4-carboxamide]: the IC50 turned out to be 4 µM.

Turning to `COc1ccc2nc(-c3cc4c(F)cccc4o3)cc(C(=O)N[C@@H](CO)Cc3c[nH]c4ccccc34)c2c1` [Example 120, 2-(4-Fluorobenzofuran-2-yl)-N-[(R)-1-(hydroxymethyl)-2-(1H-indol-3-yl)ethyl]-6-methoxyquinoline-4-carboxamide], the IC50 was 1.5 µM.

In the case of `CC(C)c1cccc(-c2cccc(C(=O)N[C@@H](CO)Cc3c[nH]c4ccccc34)c2)c1` [Example 59, N-[(R)-1-(Hydroxymethyl)-2-(1H-indol-3-yl)ethyl]-3′-(1-methylethyl)[1,1′-biphenyl]-3-carboxamide], the IC50 came out at 6 µM.

With `COc1ccc2nc(-c3cc(OC)c(OC)c(OC)c3)cc(C(=O)N[C@@H](CO)Cc3cn(C)c4ccccc34)c2c1` [Example 22, N-[(R)-1-(Hydroxymethyl)-2-(1-methyl-1H-indol-3-yl)ethyl]-6-methoxy-2-(3,4,5-trimethoxyphenyl)quinoline-4-carboxamide], the IC50 worked out at 0.3 µM.

`O=C(N[C@@H](CO)Cc1c[nH]c2ccccc12)c1cc(-c2ccc3c(c2)OCO3)ccc1OC1CCCC1` [Example 418, 5-Benzo[1,3]dioxol-5-yl-2-cyclopentyloxy-N-[(R)-1-hydroxymethyl-2-(1H-indol-3-yl)ethyl]benzamide]: the IC50 came out at 0.3 µM.

For the compound `COc1ccc(-c2cccc(C(=O)N[C@@H](CO)Cc3cn(CCCCC#N)c4ccccc34)c2)cc1F` [Example 403, N-[(R)-2-[1-(4-Cyanobutyl)-1H-indol-3-yl]-1-(hydroxymethyl)ethyl]-3′-fluoro-4′-methoxy[1,1′-biphenyl]-3-carboxamide], the IC50 was determined as 0.1 µM.

As to `COc1cc(-c2cc(C(=O)N[C@@H](CO)Cc3c[nH]c4ccccc34)c3nc[nH]c3c2)cc(OC)c1OC` [Example 361, 6-(3,4,5-Trimethoxyphenyl)-1H-benzoimidazole-4-carboxylic acid [(R)-2-hydroxy-1-(1H-indol-3-ylmethyl)ethyl]amide], the IC50 worked out at 4 µM.

`COc1cc(-c2cc(C(=O)NC(CO)Cc3c[nH]c4cc(F)ccc34)c3ccccc3n2)cc(OC)c1OC` (racemic) [Example 8, N-[(R,S)-2-(6-Fluoro-1H-indol-3-yl)-1-(hydroxymethyl)ethyl]-2-(3,4,5-trimethoxyphenyl)quinoline-4-carboxamide]: the IC50 was determined as 1 µM.

With `CC(C)c1cccc(-c2ccccc2C(=O)N[C@@H](CO)Cc2c[nH]c3ccccc23)c1` [Example 86, N-[(R)-1-(Hydroxymethyl)-2-(1H-indol-3-yl)ethyl]-3′-(1-methylethyl)[1,1′-biphenyl]-2-carboxamide], the IC50 turned out to be 8 µM.

On to `CCOc1ccc(-c2cccc(-c3ccccc3)c2)cc1C(=O)NC(CO)Cc1c[nH]c2ccccc12` (stereo not shown) [Example 430, 4-Ethoxy-[1,1′; 3′,1″]terphenyl-3-carboxylic acid [1-hydroxymethyl-2-(1H-indol-3-yl)ethyl]amide], for which the IC50 is 0.4 µM.

For the compound `COc1cc(-c2cc(C(=O)NC(CO)Cc3c[nH]c4ccc(Br)cc34)c3ccccc3n2)cc(OC)c1OC` (racemic) [Example 1, N-[(R,S)-2-(5-Bromo-1H-indol-3-yl)-1-(hydroxymethyl)ethyl]-2-(3,4,5-trimethoxyphenyl)quinoline-4-carboxamide], the IC50 was 7 µM.

Take `COc1cc(-c2cc(C(=O)NC(CO)Cc3c[nH]c4c(C)cccc34)c3ccccc3n2)cc(OC)c1OC` (racemic) [Example 10, N-[(R,S)-1-(Hydroxymethyl)-2-(7-methyl-1H-indol-3-yl)ethyl]-2-(3,4,5-trimethoxyphenyl)quinoline-4-carboxamide]: the IC50 amounted to 1 µM.

On to `COc1cc(-c2cc(C#CCO)cc(C(=O)N[C@@H](CO)Cc3c[nH]c4ccccc34)c2)cc(OC)c1OC` [Example 379, 5-(3-Hydroxyprop-1-ynyl)-3′,4′,5′-trimethoxybiphenyl-3-carboxylic acid [(R)-1-hydroxy-methyl-2-(1H-indol-3-yl)ethyl]amide], for which the IC50 came to 4.5 µM.

On to `CCOc1ccc(-c2cnc(OC)nc2)cc1C(=O)N[C@@H](CO)Cc1c[nH]c2ccccc12` [Example 130, 2-Ethoxy-N-[(R)-1-hydroxymethyl-2-(1H-indol-3-yl)ethyl]-5-(2-methoxypyrimidin-5-yl)benzamide], for which the IC50 was 4 µM.

Turning to `COc1cc(-c2cc(/C=C\CCCO)cc(C(=O)N[C@@H](CO)Cc3c[nH]c4ccccc34)c2)cc(OC)c1OC` [Example 388, 5-((Z)-5-Hydroxypent-1-enyl)-3′,4′,5′-trimethoxybiphenyl-3-carboxylic acid [(R)-1-hydroxy-methyl-2-(1H-indol-3-yl)ethyl]amide], the IC50 turned out to be 0.4 µM.

Take `COc1ccc2nc(-c3ccc(OC)c(F)c3)nc(C(=O)N[C@@H](CO)Cc3c[nH]c4ccccc34)c2c1` [Example 368, 2-(3-Fluoro-4-methoxyphenyl)-6-methoxyquinazoline-4-carboxylic acid [(R)-2-hydroxy-1-(1H-indol-3-ylmethyl)ethyl]amide]: the IC50 was found to be 2.5 µM.

Turning to `O=C(N[C@@H](CO)Cc1c[nH]c2ccccc12)c1cc(-c2ccc3c(c2)CCO3)nc2ccccc12` [Example 36, 2-(2,3-Dihydrobenzofuran-5-yl)-N-[(R)-1-(hydroxymethyl)-2-(1H-indol-3-yl)ethyl]quinoline-4-carboxamide], the IC50 was found to be 6 µM.

On to `CCOc1ccc(-c2ccc(S(=O)(=O)CC)cc2)cc1C(=O)N[C@@H](CO)Cc1c[nH]c2ccccc12` [Example 483, 4-Ethanesulphonyl-4-ethoxybiphenyl-3-carboxylic [(R)-2-hydroxy-1-(1H-indol-3-ylmethyl)ethyl]amide], for which the IC50 turned out to be 1 µM.

In the case of `COc1ccc2nc(-c3cc(OC)c(OC)c(OC)c3)cc(C(=O)N[C@H](Cc3c[nH]c4ccccc34)C(C)(C)O)c2c1` [Example 373, 6-Methoxy-2-(3,4,5-trimethoxyphenyl)quinoline-4-carboxylic acid [(R)-2-hydroxy-1-(1H-indol-3-ylmethyl)-2-methylpropyl]amide], the IC50 turned out to be 8 µM.

Take `COc1ccc2cc(-c3cc(C(=O)N[C@@H](CO)Cc4c[nH]c5ccccc45)c4ccccc4n3)ccc2c1` [Example 97, 2-(6-Methoxy-naphthalen-2-yl)quinoline-4-carboxylic acid [(R)-1-hydroxymethyl-2-(1H-indol-3-yl)ethyl]amide]: the half-maximal inhibitory concentration (IC50) came to 4 µM.

The values are drawn from patent US20070060573A1, “Acyltryptophanols” (priority 2005, published 2007).
